Data published in PubChem BioAssay AID463203 (Broad Institute, 2010).
Activity calls are given as the source filed them.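 How the source made its calls: active means more than half of replicate measurements showing over 20% loss of kinase signal relative to plate controls; inconclusive means some but at most half of replicates over 20% loss; inactive means no replicate over 20% signal loss.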

Each molecule was assayed against Glycogen synthase kinase-3 alpha (Homo sapiens) (UniProt P49840) (assay: concentration-response blocking of human GSK3A – biochemical, luminescence, cell-free homogeneous, retest, dose response (AID 463203)). Conditions: GSK-3 alpha enzyme, ADP-Glo luminescence, 60 min.
Glycogen synthase kinase-3 alpha (Homo sapiens), sequence (P49840 whole entry, looked up): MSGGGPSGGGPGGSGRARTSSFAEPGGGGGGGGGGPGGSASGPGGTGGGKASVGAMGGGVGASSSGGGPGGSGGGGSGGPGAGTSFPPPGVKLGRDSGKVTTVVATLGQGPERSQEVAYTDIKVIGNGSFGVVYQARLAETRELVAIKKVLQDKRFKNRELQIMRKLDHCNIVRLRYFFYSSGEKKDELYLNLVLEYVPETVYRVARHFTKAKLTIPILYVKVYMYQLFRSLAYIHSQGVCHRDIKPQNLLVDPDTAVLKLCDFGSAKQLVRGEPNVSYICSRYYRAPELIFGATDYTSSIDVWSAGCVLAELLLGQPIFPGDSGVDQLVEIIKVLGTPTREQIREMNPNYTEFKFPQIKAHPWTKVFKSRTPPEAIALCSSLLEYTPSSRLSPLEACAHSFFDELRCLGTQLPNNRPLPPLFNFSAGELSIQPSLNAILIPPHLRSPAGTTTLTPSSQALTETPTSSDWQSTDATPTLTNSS

| Compound | AC50 |
| --- | --- |
| COc1ccc(NC(=O)c2ccc(NCCCN3CCOCC3)c([N+](=O)[O-])c2)cc1 | > 30 µM (inactive) |
| CCOC(=O)c1cc[nH]c1C | > 30 µM (inactive) |
| Cc1cc(/C=N\NC(=O)c2cccs2)c(C)n1-c1ccc2ncccc2c1 | > 30 µM (inactive) |
| O=C(NCCc1csc(-c2ccccc2)n1)c1ccc(Br)o1 | 17.4 µM |
| Cc1nnc(SCC(=O)N(C(C)C)C(C)C)nc1C | > 30 µM (inactive) |
| Cc1ccc(-c2noc(CSc3nnnn3-c3ccccc3)n2)cc1 | > 30 µM (inactive) |
| COc1ccc(-c2oc3cc(O)c(OC)c(O)c3c(=O)c2OC)cc1 | > 30 µM (inactive) |
| CCCCOC(=O)c1ccc(N/C(=N\S(=O)(=O)c2ccccc2)c2ccccc2)cc1 | > 30 µM (inactive) |
| Nc1nonc1-n1nnc(C(=O)N/N=C/c2ccco2)c1CSc1ccccc1 | > 30 µM (inactive) |
| COc1ccc(/C=C(/NC(=O)c2ccc([N+](=O)[O-])cc2)C(=O)NC(C)(C)C)cc1 | > 30 µM (inactive) |
| Cc1ccc(C2CC(=O)N3CN(Cc4ccco4)CSC3=C2C#N)cc1 (centres undefined) | > 30 µM (inactive) |
| CCOC(=O)N1CCC(N2CCN(S(=O)(=O)c3ccc(Cl)cc3)CC2)CC1 | > 30 µM (inactive) |
| Cc1cc(N2CCN(c3ccccc3)CC2)n2nnnc2n1 | > 30 µM (inactive) |
| CCNc1ccc2noc3c2c1C(=O)c1ccccc1-3 | 10.8 µM |
| COc1cc2sc(C)nc2c2ccccc12 | > 30 µM (inactive) |
| CC1(C)Cc2cccc(C(=O)NCc3ccco3)c2O1 | > 30 µM (inactive) |
| CCOC(=O)c1[nH]c2c(c1C)C(=O)CC(c1ccc(OC)c(OC)c1)C2 (centres undefined) | > 30 µM (inactive) |
| O=C1c2ccccc2C(=O)c2c(Nc3ccc(CCO)cc3)ccc(O)c21 | > 30 µM (inactive) |
| O=[N+]([O-])c1ccc(Nc2nc(NC3CCCCC3)nc(N3CCCC3)n2)cc1 | > 30 µM (inactive) |
| CCc1cccc(NC(=O)C2CCN(c3ncnc4sc(C)c(C)c34)CC2)c1 | > 30 µM (inactive) |
| Clc1ccccc1C1=Nn2c(nnc2-c2ccncc2)SC1 | 2.35 µM |
| CCOC(=O)Cc1c[nH]c2ccccc12 | > 30 µM (inactive) |
| Cc1ccc(C)c(N2CC(C(=O)Nc3nccs3)CC2=O)c1 (centres undefined) | > 30 µM (inactive) |
| COc1cc(/C=N/NC(=O)CSCc2ccc([N+](=O)[O-])cc2)cc(OC)c1OC | > 30 µM (inactive) |
| N#CC1=C2SCN(Cc3ccccc3)CN2C(=O)CC1c1ccccc1F (centres undefined) | > 30 µM (inactive) |
| CN(c1nc2nonc2nc1NC1CC1)C1CCOC1 (centres undefined) | > 30 µM (inactive) |

| Compound | AC50 |
| --- | --- |
| COC(=O)c1ccc(CSc2nnc(SCc3ccc(C(=O)OC)o3)s2)o1 | > 30 µM (inactive) |
| Cc1nnc(NC(=O)Oc2ccccc2)s1 | > 30 µM (inactive) |
| COC(=O)C1(C#N)C(c2ccccc2)C1(C(=O)OC)C(=O)OC (centres undefined) | > 30 µM (inactive) |
| Cc1cc(C)c2[nH]c(O)c(N=Nc3ccc(C(=O)O)cc3)c2c1 | > 30 µM (inactive) |
| CCc1nnc(NC(=O)CCN2C(=O)c3ccccc3C2=O)s1 | > 30 µM (inactive) |
| Cc1nn(-c2ccccc2)c(C)c1/C=C/C(=O)OCC(=O)Nc1ccc(C(N)=O)cc1 | > 30 µM (inactive) |
| CCC(CO)Nc1ncc([N+](=O)[O-])cc1C#N (centres undefined) | > 30 µM (inactive) |
| CCOc1cc(/C=C2\SC(N3CCCC(C)C3)=NC2=O)ccc1O (centres undefined) | 8.87 µM |
| CCn1c(SCc2nc3sc(C(=O)O)c(C)c3c(=O)[nH]2)nc2ccccc21 | 10.8 µM |
| Clc1nccnc1N/N=C/c1ccc(Br)cc1 | > 30 µM (inactive) |
| COc1ccccc1-n1c(O)c(C=NCCCn2ccnc2)c(=O)[nH]c1=O | 18.1 µM |
| CN(C(=O)CN1CC=C(c2ccccc2)CC1)c1c(N)n(Cc2ccccc2)c(=O)[nH]c1=O | > 30 µM (inactive) |
| COc1ccc2c3c(cccc13)C(=O)CC2 | > 30 µM (inactive) |
| c1cncc(CSc2nnc3ccc(-c4cccs4)nn23)c1 | 14.4 µM |
| O=C(O)C1CC(O)CN1C(=S)Nc1ccccc1 (centres undefined) | > 30 µM (inactive) |
| CCOC(=O)c1cc(C)[nH]c1C | > 30 µM (inactive) |
| Cc1cc(C)n(CCC(=O)N=Nc2c(O)[nH]c3ccc(Br)cc23)n1 | 11.5 µM |
| O=C1/C(=C/c2ccco2)Oc2c1ccc(O)c2CN1CCCCC1 | 10 µM |
| C[C@@H]1O[C@@H](O[C@H]2[C@H](O)[C@@H](O)[C@H](Oc3c(-c4ccc(O)c(O)c4)oc4cc(O)cc(O)c4c3=O)O[C@@H]2CO)[C@H](O)[C@H](O)[C@H]1O | > 30 µM (inactive) |
| CC1CCN(CCCNc2cc(NCCO)c([N+](=O)[O-])c3nonc23)CC1 | > 30 µM (inactive) |
| Nc1nc(Nc2cccc(F)c2)nc(NCc2ccco2)c1[N+](=O)[O-] | 4.08 µM |
| O=C(O)c1cccc2c1C(=O)c1cc(Br)ccc1S2(=O)=O | > 30 µM (inactive) |
| Cc1c(/C=N/Nc2ccc([N+](=O)[O-])cn2)c2ccccc2n1Cc1ccccc1 | > 30 µM (inactive) |
| COc1ccc(N=Cc2c(O)[nH]c3ccccc23)cc1OC | 20.3 µM |
| CCCC1=C(C(=O)OCC)C(c2cccnc2)n2nc(C)nc2N1 (centres undefined) | > 30 µM (inactive) |
| CCOC(=O)c1nc(NCc2cccnc2)c2ccccc2n1 | > 30 µM (inactive) |

| Compound | AC50 |
| --- | --- |
| Oc1ccc2cccnc2c1 | > 30 µM (inactive) |
| Cc1ccc(S(=O)(=O)N(CC(O)CN2CCCCC2)c2ccccc2)cc1 (centres undefined) | > 30 µM (inactive) |
| O=C(c1ccco1)N(Cc1cccc([N+](=O)[O-])c1)c1ccc(Br)cc1 | > 30 µM (inactive) |
| CCOC(=O)c1ccc(N2C=C(C(=O)OC)C(c3ccc(OC)c(O)c3)C(C(=O)OC)=C2)cc1 | > 30 µM (inactive) |
| Nc1nc2n(n1)C(c1ccc(Cl)cc1)CC(c1ccc(F)cc1)N2 (centres undefined) | > 30 µM (inactive) |
| O=C(COc1ccccc1F)NC1CC1 | > 30 µM (inactive) |
| Cc1ccc(S(=O)(=O)N2C(=O)/C(=C3\SC(=S)NC3=O)c3ccccc32)cc1 | > 30 µM (inactive) |
| Cc1ccc2nc(Cl)c(/C=N/Nc3ccc(C(=O)O)cc3)cc2c1 | > 30 µM (inactive) |
| CC(=O)Nc1cccc(-c2cnc(N)c(C(=O)c3cccnc3)n2)c1 | 0.105 µM |
| Cc1nnc(SCC(=O)N2c3ccccc3CC2C)s1 (centres undefined) | > 30 µM (inactive) |
| O=S(=O)(O)c1cccc(N=Nc2c(O)ccc3ccccc23)c1 | 8.34 µM |
| Cc1cccc2cc(C#N)c(NCCNC(=S)NCCCN3CCOCC3)nc12 | > 30 µM (inactive) |
| CC1(C)CC(=O)C(C(c2ccncc2)C2C(=O)CC(C)(C)CC2=O)C(=O)C1 | > 30 µM (inactive) |
| O=C(N/N=C/c1ccc(O)c(O)c1)NC12CC3CC(CC(C3)C1)C2 | > 30 µM (inactive) |
| CCNc1cc(N2CCCC2)ccc1[N+](=O)[O-] | > 30 µM (inactive) |
| CN(C)/N=C/c1cn(-c2ccccc2)nc1-c1cccnc1 | > 30 µM (inactive) |
| CCOC(=O)c1cc(C)sc1NC(=O)C1CCC1 | > 30 µM (inactive) |
| CCCCCCN=C(CC)c1c(O)n(CCCC)c(=O)[nH]c1=O | > 30 µM (inactive) |
| Cc1nc(NCC2CCCO2)[nH]c(=O)c1CCC(C)C (centres undefined) | > 30 µM (inactive) |
| NC1=NC(=O)/C(=C\c2ccco2)S1 | > 30 µM (inactive) |
| Cc1nccnc1Sc1ccccc1 | > 30 µM (inactive) |
| Cc1ccc(-c2cn3cccnc3n2)cc1NC(=O)c1cccs1 | > 30 µM (inactive) |
| O=C(CSCc1ccc([N+](=O)[O-])cc1)N/N=C/c1cccnc1 | > 30 µM (inactive) |
| Cc1c(O)ccc2c3c(c(=O)oc12)CCCC3 | 6.63 µM |
| Cc1nn(C)c(C)c1CN(C)S(=O)(=O)c1ccc(F)cc1 | > 30 µM (inactive) |
| CC1=[N+](C)c2ccc3ccccc3c2C1(C)C | > 30 µM (inactive) |

| Compound | AC50 |
| --- | --- |
| C/C(=N\NC(=O)c1nnn(-c2nonc2N)c1CN1CCCCCC1)c1ccc(Br)cc1 | 29.7 µM |
| Cc1cc(C(=O)N/N=C/c2cc(N=Nc3ccccc3)ccc2O)n[nH]1 | > 30 µM (inactive) |
| O=C(COC(=O)c1ccc(F)cc1F)Nc1ccc(Cl)cn1 | > 30 µM (inactive) |
| CCN(C(=O)CN1CC=C(c2ccccc2)CC1)c1c(N)n(Cc2ccccc2)c(=O)[nH]c1=O | > 30 µM (inactive) |
| COc1ccc(-c2csc3ncnc(NCCCO)c23)cc1 | 20.6 µM |
| O=C(c1coc2ccc(O)c(CN3CCOCC3)c12)C1CC1 | 22.8 µM |
| CC1CCN(Cc2c(O)ccc3c2O/C(=C\c2ccco2)C3=O)CC1 | 4.41 µM |
| CN(C)c1ccc(/C=N/NC(=O)c2ccc(Cl)cc2)cc1 | > 30 µM (inactive) |
| C[C@@H](NC(=O)c1[nH]cnc1C(=O)Nc1ccon1)c1ccccc1 | 11.6 µM |
| Cc1onc(-c2c(F)cccc2Cl)c1C(=O)OCC(=O)Nc1c(C)n(C)n(-c2ccccc2)c1=O | > 30 µM (inactive) |
| COc1ccc(CCNc2nc(C)cc(C)n2)cc1OC | > 30 µM (inactive) |
| COc1ccc(N2CCOCC2)c(NC(=O)c2ccc(Br)o2)c1 | 8.71 µM |
| COc1cccc(NC(=O)CN(C)C(=O)C23CC4CC(CC(Cl)(C4)C2)C3)c1 | > 30 µM (inactive) |
| COc1cccc(C2C3(C#N)C(N)=NC(OC)(OC)C23C#N)c1 (centres undefined) | > 30 µM (inactive) |
| O=c1cc(-c2ccc(O)c(O)c2)oc2c1ccc1ccccc12 | 5.66 µM |
| CCCCC(NS(=O)(=O)c1ccc(OC)cc1)C(=O)O (centres undefined) | > 30 µM (inactive) |
| COc1ccc(CC(=O)Oc2ccccc2C)cc1 | > 30 µM (inactive) |
| O=C(CSc1nnc(SCc2ccccc2Cl)s1)N/N=C/c1ccc(C(=O)O)cc1 | 5.94 µM |
| COc1cc(OC)cc(-c2nnc(SCc3c(F)cccc3Cl)o2)c1 | > 30 µM (inactive) |
| O=[N+]([O-])c1cccnc1N1CCCNCC1 | > 30 µM (inactive) |
| CCOC(=O)N1CCC(N2CCN(S(=O)(=O)c3ccc(C)cc3)CC2)CC1 | > 30 µM (inactive) |
| Cc1cccc(C(=O)Nc2nccs2)c1[N+](=O)[O-] | > 30 µM (inactive) |
| NC(=O)c1nnn(-c2ccccc2)c1N | > 30 µM (inactive) |
| COc1ccc(-c2cc(C(F)(F)F)nc(SCCC(=O)NCc3ccccc3)n2)cc1 | > 30 µM (inactive) |
| CC(=O)Nc1ccc(NC(=O)CSc2nnc(-c3ccc4c(c3)OCO4)o2)cc1 | 2.61 µM |
| Nc1nnc(SCC(=O)Nc2sc3c(c2C(=O)c2ccccc2)CCCC3)s1 | > 30 µM (inactive) |
